Results: patent publication US7030121B2, “Pyrazolopyrazine compound and pharmaceutical use thereof” (Astellas Pharma Inc., priority 2001, dated 2006)

How the values were obtained:
human A1 receptor = target: T1, human A1 receptor (Homo sapiens, UniProt P30542); assay: Adenosine antagonistic activity, radioligand binding with [3H]DPCPX; settings: [3H]DPCPX 4.5 nM
T1 sequence (P30542 1-326): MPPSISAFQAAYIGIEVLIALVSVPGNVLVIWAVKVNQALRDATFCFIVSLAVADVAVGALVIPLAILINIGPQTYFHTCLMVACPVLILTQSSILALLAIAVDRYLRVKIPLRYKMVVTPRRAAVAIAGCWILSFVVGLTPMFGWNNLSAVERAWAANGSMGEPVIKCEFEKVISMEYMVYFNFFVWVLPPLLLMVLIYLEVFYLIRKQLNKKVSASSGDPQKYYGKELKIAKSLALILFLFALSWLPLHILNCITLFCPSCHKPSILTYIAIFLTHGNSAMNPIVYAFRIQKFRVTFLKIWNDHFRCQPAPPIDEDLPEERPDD
Method: (§1) Test 1: Adenosine Antagonistic Activity
(§2) The adenosine antagonistic activity [Ki(nM)] of the test compound was examined by radioligand binding techniques using 8-cyclopentyl-1,3-dipropylxanthine, [dipropyl-2,3-^3H(N)] ([^3H]DPCPX, 4.5 nM) for human A1 receptor and [^3H]CGS 21680 (20 nM) for human A2a receptor.

human A2a receptor = human A2a receptor (Homo sapiens, UniProt P29274); assay: Adenosine antagonistic activity, radioligand binding with [3H]CGS 21680; settings: [3H]CGS 21680 20 nM
Method: as §1, §2

ddY mice = assay: Anticatalepsy activity in mouse (haloperidol-induced catalepsy); format: in vivo; settings: 3.2 mg/kg orally, ddY mice n=7; haloperidol 0.32 mg/kg i.p. 30 min later; measured 30 min after injection
Method: Test 2: Anticatalepsy Activity in Mouse [I] Test Method
The test compound (3.2 mg/kg) was administered orally with ddY mice (n=7). Then, haloperidol (0.32 mg/kg) was injected intraperitoneally 30 min. after the administration of the compound. Thirty min. after the injection, the cataleptic responses of mice were measured. The forelimbs of each mouse were placed on a 3 cm high, 3 mm wide horizontal bar, and the duration of cataleptic posture was measured for up to 30 sec.

Chain of human A2a receptor (P29274 whole entry): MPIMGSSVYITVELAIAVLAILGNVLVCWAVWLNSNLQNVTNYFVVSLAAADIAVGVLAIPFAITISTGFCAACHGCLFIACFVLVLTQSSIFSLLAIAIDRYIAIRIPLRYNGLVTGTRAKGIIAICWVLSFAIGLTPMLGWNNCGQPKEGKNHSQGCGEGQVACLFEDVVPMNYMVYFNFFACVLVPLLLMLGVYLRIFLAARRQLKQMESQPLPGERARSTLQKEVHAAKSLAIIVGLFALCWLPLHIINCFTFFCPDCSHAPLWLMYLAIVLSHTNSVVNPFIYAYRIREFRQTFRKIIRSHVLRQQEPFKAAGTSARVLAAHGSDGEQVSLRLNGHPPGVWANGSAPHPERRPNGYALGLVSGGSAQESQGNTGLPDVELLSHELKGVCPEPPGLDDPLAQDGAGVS

O=c1ccc(-c2c(-c3ccccc3)nn3ccncc23)c[nH]1 [Example 1, 3-(2(1H)-pyridinon-5-yl)-2-phenylpyrazolo[1,5-a]pyrazine]
Ki (human A1 receptor): 0.18 nM
Ki (human A2a receptor): 0.68 nM
Manifestation rate of catalepsy (number of mouse) (ddY mice): 1/7
melting point: > 250 °C

Cn1cc(-c2c(-c3ccccc3)nn3ccncc23)ccc1=O [Example 2, 3-(1-methyl-2(1H)-pyridinon-5-yl)-2-phenylpyrazolo[1,5-a]pyrazine]
Ki (human A1 receptor): 0.35 nM
Ki (human A2a receptor): 3.28 nM
Manifestation rate of catalepsy (number of mouse) (ddY mice): 0/7
melting point: 168 to 169 °C

CC(C)n1cc(-c2c(-c3ccccc3)nn3ccncc23)ccc1=O [Example 3, 3-(1-Isopropyl-2(1H)-pyridinon-5-yl)-2-phenylpyrazolo[1,5-a]pyrazine]
melting point: 196 to 197 °C

CCn1cc(-c2c(-c3ccccc3)nn3ccncc23)ccc1=O [Example 4, 3-(1-Ethyl-2 (1H)-pyridinon-5-yl)-2-phenylpyrazolo[1,5-a]pyrazine]
melting point: 192 to 193 °C

CCCn1cc(-c2c(-c3ccccc3)nn3ccncc23)ccc1=O [Example 5, 3-(1-n-Propyl-2(1H)-pyridinon-5-yl)-2-phenylpyrazolo[1,5-a]pyrazine]
melting point: 165 to 166 °C

Cn1cc(-c2c(-c3ccc(F)cc3)nn3ccncc23)ccc1=O [Example 7, 3-(1-Methyl-2(1H)-pyridinon-5-yl)-2-(4-fluorophenyl)pyrazolo[1,5-a]pyrazine]
melting point: 222 to 223 °C

CC(C)n1cc(-c2c(-c3ccc(F)cc3)nn3ccncc23)ccc1=O [Example 8, 3-(1-Isopropyl-2(1H)-pyridinon-5-yl)-2-(4-fluorophenyl)pyrazolo[1,5-a]pyrazine]
melting point: 214 to 215 °C

CCn1cc(-c2c(-c3ccc(F)cc3)nn3ccncc23)ccc1=O [Example 9, 3-(1-Ethyl-2(1H)-pyridinon-5-yl)-2-(4-fluorophenyl)pyrazolo[1,5-a]pyrazine]
Ki (human A1 receptor): 0.36 nM
Ki (human A2a receptor): 4.44 nM
Manifestation rate of catalepsy (number of mouse) (ddY mice): 0/7
melting point: 165 to 166 °C

CCCn1cc(-c2c(-c3ccc(F)cc3)nn3ccncc23)ccc1=O [Example 10, 3-(1-n-Propyl-2(1H)-pyridinon-5-yl)-2-(4-fluorophenyl)pyrazolo[1,5-a]pyrazine]
melting point: 183 to 184 °C

Cn1cc(-c2c(-c3ccccc3F)nn3ccncc23)ccc1=O [Example 12, 3-(1-Methyl-2(1H)-pyridinon-5-yl)-2-(2-fluorophenyl)pyrazolo[1,5-a]pyrazine]
melting point: 193 to 194 °C

CC(C)n1cc(-c2c(-c3ccccc3F)nn3ccncc23)ccc1=O [Example 13, 3-(1-Isopropyl-2(1H)-pyridinon-5-yl)-2-(2-fluorophenyl)pyrazolo[1,5-a]pyrazine]
melting point: 150 to 151 °C

CCn1cc(-c2c(-c3ccccc3F)nn3ccncc23)ccc1=O [Example 14, 3-(1-Ethyl-2(1H)-pyridinon-5-yl)-2-(2-fluorophenyl)pyrazolo[1,5-a]pyrazine]
melting point: 173 to 174 °C

CCCn1cc(-c2c(-c3ccccc3F)nn3ccncc23)ccc1=O [Example 15, 3-(1-n-Propyl-2(1H)-pyridinon-5-yl)-2-(2-fluorophenyl)pyrazolo[1,5-a]pyrazine]
melting point: 127 to 128 °C
